Experimental data as given in DBAASP.
Values after ≈ are worked out from the molar mass of the structure shown. Values joined by “and” are separate entries in the source; they are usually repeats but may differ in a detail not shown here. Equal entries are not always repeated.

Legend:
Assay in all cases: ≥ marks a high value that may be exact or a test limit, other limits are often not marked, values filed in µg/mL are converted to µM
[1] = system: Staphylococcus epidermidis ATCC 1435
Acinetobacter baumannii = system: Acinetobacter baumannii
Staphylococcus aureus = system: Staphylococcus aureus
[2] = system: Pseudomonas aeruginosa ATCC 10662
[3] = system: Staphylococcus aureus ATCC 25923
[4] = system: Escherichia coli ATCC 25922
Escherichia coli K-12 = system: Escherichia coli K-12
[5] = system: Candida albicans ATCC 90028
[6] = system: Pseudomonas aeruginosa ATCC 27853
[7] = system: Staphylococcus aureus JE2
[8] = system: Staphylococcus aureus ATCC 43300
[9] = system: Klebsiella pneumoniae ATCC 700603
[10] = system: Acinetobacter baumannii ATCC 19606
[11] = system: Cryptococcus neoformans var. grubii H99
[12] = system: Staphylococcus epidermidis
[13] = system: Escherichia coli NBRC 3972
[14] = system: Escherichia coli DH5alpha
[15] = system: Proteus vulgaris NBRC 3045
[16] = system: Pseudomonas aeruginosa NBRC 13275
[17] = system: Enterococcus faecalis ATCC 29212
[18] = system: Staphylococcus pseudintermedius
[19] = system: Staphylococcus haemolyticus
[20] = system: Staphylococcus pseudintermedius MW767056
[21] = system: Trichophyton rubrum ATCC 28189
Klebsiella pneumoniae = system: Klebsiella pneumoniae
[22] = system: Pseudomonas aeruginosa PA006
[23] = system: Klebsiella pneumoniae ATCC 13833
Microsporum canis = system: Microsporum canis
Staphylococcus sciuri = system: Staphylococcus sciuri
Escherichia coli = system: Escherichia coli
[24] = system: Staphylococcus epidermidis ATCC 12228
[25] = system: Pseudomonas aeruginosa PA002
[26] = system: Trichophyton mentagrophytes
Staphylococcus simulans = system: Staphylococcus simulans
[27] = system: Microsporum canis MW768151
Proteus mirabilis = system: Proteus mirabilis
[28] = system: Pseudomonas aeruginosa PAO1
[29] = system: Cryptococcus neoformans B3501
[30] = system: Staphylococcus cohnii MW767053
[31] = system: Corynebacterium pseudotuberculosis ATCC 19410
Aspergillus fumigatus = system: Aspergillus fumigatus
[32] = system: Mannheimia haemolytica Serovar 2
Pasteurella multocida = system: Pasteurella multocida
Bibersteinia trehalosi = system: Bibersteinia trehalosi
[33] = system: Salmonella enterica subsp. arizonae
[34] = system: Mannheimia haemolytica Serovar 6
[35] = system: Mannheimia haemolytica Serovar 1

With `CC[C@H](C)[C@H](NC(=O)CNC(=O)[C@H](CCCN=C(N)N)NC(=O)[C@H](Cc1ccccc1)NC(=O)[C@@H](NC(=O)[C@H](Cc1cnc[nH]1)NC(=O)[C@H](Cc1cnc[nH]1)NC(=O)[C@H](Cc1ccccc1)NC(=O)[C@@H](N)Cc1ccccc1)[C@@H](C)CC)C(=O)N[C@H](C(=O)N[C@@H](Cc1cnc[nH]1)C(=O)N[C@H](C(=O)NCC(=O)N[C@@H](CCCCN)C(=O)N[C@H](C(=O)N[C@@H](CCCCN)C(=O)N[C@@H](Cc1cnc[nH]1)C(=O)N[C@@H](CCCN=C(N)N)C(=O)N[C@@H](CC(C)C)C(=O)N[C@H](C(=O)N[C@H](C(=O)NCC(N)=O)[C@@H](C)O)C(C)C)[C@@H](C)O)C(C)C)C(C)C` [FFHHIFRGIVHVGKTKHRLVTG] the MIC [1] was 1.2 µM (≈ 3.1 µg/mL), the MIC (Acinetobacter baumannii) was 1.2 µM (≈ 3.1 µg/mL) and the MIC (Staphylococcus aureus) was 2.4 µM (≈ 6.2 µg/mL). The MIC [2] was 9.66 µM (≈ 25 µg/mL), the MIC [3] was 2.4 µM (≈ 6.2 µg/mL) and the MIC [4] was 1.2 µM (≈ 3.1 µg/mL).
In the case of `CC[C@H](C)[C@H](NC(=O)[C@@H](NC(=O)[C@H](CO)NC(=O)[C@H](C)NC(=O)[C@@H](NC(=O)[C@H](CCCCN)NC(=O)[C@H](CCCN=C(N)N)NC(=O)[C@@H](NC(=O)[C@@H](NC(=O)[C@H](CC(=O)O)NC(=O)[C@H](Cc1ccccc1)NC(=O)[C@H](CC(C)C)NC(=O)CN)C(C)C)[C@@H](C)CC)C(C)C)C(C)C)C(=O)NCC(=O)NCC(=O)N[C@@H](CC(C)C)C(=O)O` [GLFDVIRKVASVIGGL], the MIC (Escherichia coli K-12) was 19.5 µM (≈ 32 µg/mL), the MIC [5] was 19.5 µM (≈ 32 µg/mL) and the MIC [6] was > 19.5 µM. For the same molecule, the MIC [7] was 9.73 µM (≈ 16 µg/mL), the MIC [8] was 9.73 µM (≈ 16 µg/mL) and the MIC [9] was > 19.5 µM. For the same molecule, the MIC [4] was > 19.5 µM, the MIC [10] was 19.5 µM (≈ 32 µg/mL) and the MIC [11] was 9.73 µM (≈ 16 µg/mL).
With `CC(C)C[C@H](NC(=O)[C@H](CCCCN)NC(=O)CNC(=O)[C@H](CCCCN)NC(=O)[C@H](CC(C)C)NC(=O)[C@H](CCCCN)NC(=O)[C@H](CC(C)C)NC(=O)[C@H](CCCCN)NC(=O)[C@H](C)NC(=O)CNC(=O)[C@H](CC(C)C)NC(=O)[C@H](CCCCN)NC(=O)[C@H](CC(C)C)NC(=O)[C@H](CCCCN)NC(=O)[C@H](C)NC(=O)[C@H](CC(C)C)NC(=O)[C@H](CCCCN)NC(=O)[C@H](CCCCN)NC(=O)[C@@H](N)CCCCN)C(=O)NCC(=O)N[C@@H](C)C(N)=O` [KKKLAKLKLGAKLKLKGKLGA] the MIC [12] was 6.25 µM (≈ 14 µg/mL), the MIC [13] was 12.5 µM (≈ 27.9 µg/mL) and the MIC (Staphylococcus aureus) was 100 µM (≈ 223 µg/mL). For the same molecule, the MIC [14] was 25 µM (≈ 55.8 µg/mL), the MIC [15] was ≥ 100 µM and the MIC [16] was 3.12 µM (≈ 6.98 µg/mL).
With `CC[C@H](C)[C@H](NC(=O)[C@H](Cc1ccccc1)NC(=O)CNC(=O)[C@H](CCCCN)NC(=O)[C@@H](NC(=O)[C@H](Cc1ccccc1)NC(=O)[C@H](CCCCN)NC(=O)[C@H](CCCN=C(N)N)NC(=O)[C@@H](NC(=O)[C@@H](NC(=O)[C@H](CCCN=C(N)N)NC(=O)[C@@H](NC(=O)[C@H](C)NC(=O)[C@H](Cc1c[nH]c2ccccc12)NC(=O)[C@@H](N)CCCCN)C(C)C)[C@@H](C)CC)[C@@H](C)CC)[C@@H](C)CC)C(=O)N[C@@H](CO)C(N)=O` [KWAVRIIRKFIKGFIS] the MIC [17] was 8.15 µM (≈ 16 µg/mL), the MIC [18] was ≥ 32.6 µM and the MIC [19] was ≥ 65.2 µM. For the same molecule, the MIC [5] was 1.67 µM (≈ 3.28 µg/mL), the MIC [20] was ≥ 130 µM and the MIC [21] was 8 µM (≈ 15.7 µg/mL). For the same molecule, the MIC (Klebsiella pneumoniae) was 5.77 µM (≈ 11.3 µg/mL), the MIC [22] was 2.04 µM (≈ 4 µg/mL) and the MIC [23] was 1 µM (≈ 1.96 µg/mL). The MIC (Microsporum canis) was 1.44 µM (≈ 2.83 µg/mL), the MIC (Staphylococcus sciuri) was ≥ 130 µM and the MIC (Escherichia coli) was 1.44 µM and 2.88 µM. For the same molecule, the MIC [6] was 4.08 µM and 1.67 µM and 4 µM, the MIC [24] was 1 µM (≈ 1.96 µg/mL) and the MIC [25] was 8.15 µM (≈ 16 µg/mL). For the same molecule, the MIC [26] was 0.51 µM (≈ 1 µg/mL), the MIC [4] was 2.04 µM and 2 µM and the MIC (Staphylococcus simulans) was ≥ 32.6 µM. For the same molecule, the MIC [27] was 0.51 µM (≈ 1 µg/mL), the MIC (Proteus mirabilis) was ≥ 65.2 µM and the MIC [28] was 4.08 µM (≈ 8 µg/mL). The MIC [29] was 2 µM (≈ 3.92 µg/mL) and the MIC [30] was 16.3 µM (≈ 32 µg/mL).
Molecule `CC[C@H](C)[C@H](NC(=O)[C@H](Cc1cnc[nH]1)NC(=O)[C@@H](NC(=O)[C@@H](NC(=O)[C@H](CCCCN)NC(=O)[C@H](CCCN=C(N)N)NC(=O)[C@@H](NC(=O)[C@@H](NC(=O)[C@H](CCCN=C(N)N)NC(=O)[C@H](CCCN=C(N)N)NC(=O)[C@@H](N)CC(C)C)[C@@H](C)CC)[C@@H](C)CC)[C@@H](C)CC)[C@@H](C)CC)C(=O)N[C@H](C(=O)N[C@@H](CCCCN)C(=O)N[C@@H](CCCCN)C(=O)O)[C@@H](C)CC` [LRRIIRKIIHIIKK] has an MIC [31] of 11.1 µM (≈ 20 µg/mL), an MIC (Aspergillus fumigatus) of 18.5 µM (≈ 33.3 µg/mL) and an MIC [32] of 3.72 µM (≈ 6.7 µg/mL). The MIC (Klebsiella pneumoniae) was > 11.1 µM, the MIC (Staphylococcus aureus) was > 11.1 µM and the MIC (Pasteurella multocida) was 5.55 µM (≈ 10 µg/mL). The MIC (Bibersteinia trehalosi) was 11.1 µM (≈ 20 µg/mL), the MIC [33] was 11.1 µM (≈ 20 µg/mL) and the MIC [34] was 9.28 µM (≈ 16.7 µg/mL). It also gave an MIC [28] of 1.83 µM (≈ 3.3 µg/mL) and an MIC [35] of 2.78 µM (≈ 5 µg/mL).
